Assay results from patent publication US12435061B2 (priority 2020, dated 2025).
In brackets after ≈: the same amount, converted by molar mass. Read-outs that look alike come from different tables or passages of the source.

Legend:
hTRPV3 = hTRPV3 (Homo sapiens (Human), UniProt Q8NET8); experiment: Whole-cell patch clamp, hTRPV3 Phase 1 / Phase 2 currents; format: cell-based
Method in brief: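 Whole-cell recordings on induced TRPV3 cells replated on coverslips, held at −40 mV with 400 ms ramps from −120 to +100 mV every 5 s; currents read at −80 and +80 mV. Ringer's external solution; current activated by heating to ≥28 °C or 20 μM 2-APB.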

[1] = Aqueous solubility assay in Normal Ringer Solution; conditions: Normal Ringer Solution; for solubility at 40 min: saline or isotonic, kinetic from dmso stock; for Solubility Ringer (nM): room temperature
Method: Following vortex and incubation for a sufficient time (e.g. 40 minutes at room temperature), solutions were filtered, quenched with acetonitrile, and analyzed by Liquid Chromotography. Solubility Limits were determined by comparison to a standard curve.

[2] = Metabolic Stability assay, rat liver microsomes; format: in vitro ADME
Method: Metabolic Stability assay: The metabolic stability was determined by adding compound dissolved in DMSO to human or rat, liver microsomes. Briefly, assays were run with a starting concentration of 1 μM test article. The reaction was started by addition of NADPH regeneration components at 37° C. at which time an aliquot was immediately quenched in ice-cold acetonitrile/MeOH/H2O solution. Reaction mixture was incubated at 37° C. on a shaker, and additional aliquots were taken at 7, 15, 30 and 60 minutes. Following quench and centrifugation, samples were analyzed on HPLC/MS/MS.

[3] = Phase 1 current, inward, whole-cell patch clamp, read-out: hTRPV3 Patch P1 Inwd
[4] = Phase 1 current, read-out: hTRPV3 (nM) (Phase 1)
[5] = Phase 2 current, inward, whole-cell patch clamp, read-out: hTRPV3 Patch P2 Inwd
[6] = Phase 2 current, read-out: hTRPV3 (nM) (Phase 2)
[7] = Phase 1 current, human TRPV3, read-out: hTRPV3 (nM) Phase 1

Sequence of hTRPV3 (Q8NET8 whole entry): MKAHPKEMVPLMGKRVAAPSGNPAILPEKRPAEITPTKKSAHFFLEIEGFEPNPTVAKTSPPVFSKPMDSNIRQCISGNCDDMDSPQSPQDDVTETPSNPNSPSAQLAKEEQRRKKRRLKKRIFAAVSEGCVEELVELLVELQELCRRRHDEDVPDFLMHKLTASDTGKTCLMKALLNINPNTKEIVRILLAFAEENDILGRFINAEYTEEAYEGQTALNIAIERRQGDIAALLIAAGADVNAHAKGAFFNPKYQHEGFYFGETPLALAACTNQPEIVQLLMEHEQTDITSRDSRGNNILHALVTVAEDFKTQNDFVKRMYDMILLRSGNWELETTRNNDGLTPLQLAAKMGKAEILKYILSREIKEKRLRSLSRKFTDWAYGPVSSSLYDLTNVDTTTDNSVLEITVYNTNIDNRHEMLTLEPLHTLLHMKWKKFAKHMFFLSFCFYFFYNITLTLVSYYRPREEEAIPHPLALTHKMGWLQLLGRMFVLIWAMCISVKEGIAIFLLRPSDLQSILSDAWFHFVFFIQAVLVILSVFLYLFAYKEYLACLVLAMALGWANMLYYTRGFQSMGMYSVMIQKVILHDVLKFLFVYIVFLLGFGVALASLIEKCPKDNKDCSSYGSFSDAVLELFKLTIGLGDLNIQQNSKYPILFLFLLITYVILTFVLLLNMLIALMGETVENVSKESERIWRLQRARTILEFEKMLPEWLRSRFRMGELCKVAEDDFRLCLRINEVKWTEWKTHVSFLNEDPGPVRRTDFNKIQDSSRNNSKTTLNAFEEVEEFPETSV

| Structure (SMILES) | IC50 (hTRPV3; [3]) [nM] | IC50 (hTRPV3; [4]) [nM] | solubility at 40 min [1] [µM] | half-life at 1 μM ([2]; read-out: LM T1/2 (min) (rat)) | IC50 (hTRPV3; [5]) [nM] | IC50 (hTRPV3; [6]) [nM] | Solubility Ringer (nM) [1] | IC50 (hTRPV3; hTRPV3 Patch P1 Inwd (nM)) [nM] | IC50 (hTRPV3; read-out: hTRPV3 (nM) (Phase 1)) | IC50 (hTRPV3; [7]) [nM] | half-life at 1 μM ([2]; read-out: LM T1/2 (min) rat) [min] | IC50 (hTRPV3; Phase 2 current, human TRPV3, read-out: hTRPV3 (nM) Phase 2) [nM] |
| --- | --- | --- | --- | --- | --- | --- | --- | --- | --- | --- | --- | --- |
| O=C(c1ccc(F)cc1)c1ccc(N2CC[C@H](Oc3ncccc3Cl)C2)c(CO)c1 [Compound 1-279, (S)-(4-(3-(3-chloropyridin-2-yloxy)pyrrolidin-1-yl)-3-(hydroxymethyl)phenyl)(4-fluorophenyl)methanone] | 10 to 100 | 56.9 | 1.2 (≈ 0.512 µg/mL) | 18.4 | – | – | – | – | – | – | – | – |
| Cc1cccc(C(=O)c2ccc(N3CC[C@H](Oc4ncccc4Cl)C3)c(CO)c2)c1 [Compound 1-282, (S)-(4-(3-(3-chloropyridin-2-yloxy)pyrrolidin-1-yl)-3-(hydroxymethyl)phenyl)(m-tolyl)methanone] | 10 to 100 | 62.3 | ~0.67 (≈ 0.283 µg/mL) | 16.1 | – | – | – | – | – | – | – | – |
| COC(c1ccc(F)cc1)c1ccc(N2CC[C@H](Oc3ncccc3Cl)C2)c(CO)c1 (stereo partly drawn) [Compound 1-289, (2-((S)-3-(3-chloropyridin-2-yloxy)pyrrolidin-1-yl)-5-((4-fluorophenyl)(methoxy)methyl)phenyl)methanol] | 10 to 100 | 66.2 | ~1.75 (≈ 0.775 µg/mL) | 9.22 | – | – | – | – | – | – | – | – |
| COCc1ccccc1Oc1ccc(N2CC[C@H](Oc3ncccc3Cl)C2)c(CCO)c1 [Compound 1-297, (S)-2-(2-(3-(3-chloropyridin-2-yloxy)pyrrolidin-1-yl)-5-(2-(methoxymethyl)phenoxy)phenyl)ethanol] | 10 to 100 | 56.6 | 1.4 (≈ 0.637 µg/mL) | 7.44 | – | – | – | – | – | – | – | – |
| OCc1cc(Oc2cccc(Cl)c2)ccc1N1CC[C@H](Oc2ccccn2)C1 [Compound 1-304] | 10 to 100 | 55.8 | ~1 (≈ 0.397 µg/mL) | 17.5 | – | – | – | – | – | – | – | – |
| OCCc1cc(Oc2ccccc2F)ccc1N1CC[C@H](Oc2ncccc2F)C1 [Compound 1-313, (S)-2-(5-(2-fluorophenoxy)-2-(3-(3-fluoropyridin-2-yloxy)pyrrolidin-1-yl)phenyl)ethanol] | 10 to 100 | 72.5 | ~2 (≈ 0.825 µg/mL) | 9.29 | 10 to 100 | 71.3 | – | – | – | – | – | – |
| CC(C)c1ccccc1Oc1ccc(N2CC[C@H](Oc3ccccn3)C2)c(CO)c1 [Compound 1-316] | < 10 | 7.77 | > 4 | 18.9 | – | – | – | – | – | – | – | – |
| CC(C)c1ccccc1Oc1ccc(N2CC[C@H](Oc3ccccn3)C2)c(CCO)c1 [Compound 1-317] | 10 to 100 | 20.8 | – | 12.1 | – | – | BLQ | – | – | – | – | – |
| CC(C)c1ccccc1Oc1ccc(N2CC[C@H](Oc3ncccc3Cl)C2)c(CCO)c1 [Compound 1-327, (S)-2-(2-(3-(3-chloropyridin-2-yloxy)pyrrolidin-1-yl)-5-(2-isopropylphenoxy)phenyl)ethanol] | – | – | – | 14.6 | – | – | BLQ | 10 to 100 | 15.9 | – | – | – |
| CCc1c(Cl)ncnc1Oc1ccc(N2CC[C@H](Oc3ncccc3Cl)C2)c(CO)c1 [Compound 1-358, (S)-(5-(6-chloro-5-ethylpyrimidin-4-yloxy)-2-(3-(3-chloropyridin-2-yloxy)pyrrolidin-1-yl)phenyl)methanol] | 100 to 1000 | 174 | ~2.1 (≈ 0.969 µg/mL) | 16.7 | – | – | – | – | – | – | – | – |
| NC(=O)c1cc(-c2ccccc2)ccc1N1CC[C@H](Nc2ncccc2Cl)C1 [Compound 1-377, (S)-4-(3-(3-chloropyridin-2-ylamino)pyrrolidin-1-yl)biphenyl-3-carboxamide] | 100 to 1000 | 360 | > 3.2 | 35.6 | 100 to 1000 | 318 | – | – | – | – | – | – |
| CCc1ccccc1Oc1ccc(N2CC[C@H](Nc3ncccc3Cl)C2)c(CO)c1 [Compound 1-380, (S)-(2-(3-(3-chloropyridin-2-ylamino)pyrrolidin-1-yl)-5-(2-ethylphenoxy)phenyl)methanol] | 10 to 100 | 25.6 | – | 20.9 | – | – | BLQ | – | – | – | – | – |
| Cc1ccccc1Oc1ccc(N2CC[C@H](Nc3ncccc3Cl)C2)c(CO)c1 [Compound 1-383, (S)-(2-(3-(3-chloropyridin-2-ylamino)pyrrolidin-1-yl)-5-(o-tolyloxy)phenyl)methanol] | 10 to 100 | 12.6 | ~0.35 (≈ 0.143 µg/mL) | 31.4 | – | – | – | – | – | – | – | – |
| OCCc1cc(C(O)c2ccccc2Cl)ccc1N1CC[C@H](Nc2ccc(F)cn2)C1 (stereo partly drawn) [Compound 1-390, 2-(5-((2-chlorophenyl)(hydroxy)methyl)-2-((S)-3-(5-fluoropyridin-2-ylamino)pyrrolidin-1-yl)phenyl)ethanol] | 100 to 1000 | 219 | > 13.6 | 7.23 | – | – | – | – | – | – | – | – |
| CCc1ccccc1Oc1ccc(N2CC[C@H](OCc3ncccc3C)C2)c(CO)c1 [Compound 1-398] | – | 187 | ~1.4 (≈ 0.586 µg/mL) | 5.19 | – | 64.8 | – | – | – | – | – | – |
| CC(C)c1ccccc1-c1ccc(C2CCN(C(=O)c3ccc(Cl)cn3)C2)c(CO)c1 (centres unmarked) [Compound 2-30] | < 10 | – | ~3.7 (≈ 1.61 µg/mL) | – | – | – | – | – | – | 2.68 | 13.9 | – |
| CC(C)c1ccccc1-c1ccc(C2CCN(C(=O)c3ccc(Cl)cn3)C2)c(C(N)=O)c1 (centres unmarked) [Compound 2-35] | 10 to 100 | – | ~3.3 (≈ 1.48 µg/mL) | – | 10 to 100 | – | – | – | – | 61.7 | 7.16 | 64.3 |
| CCc1ccccc1-c1ccc(C2CCN(C(=O)c3ccc(C)cn3)C2)c(CO)c1 (centres unmarked) [Compound 2-50, (3-(2′-ethyl-3-(hydroxymethyl)biphenyl-4-yl)pyrrolidin-1-yl)(5-methylpyridin-2-yl) methanone] | 10 to 100 | – | ~3.9 (≈ 1.56 µg/mL) | – | – | – | – | – | – | 89.8 | 8.67 | – |
| CCc1ccccc1-c1ccc(C2CCN(C(=O)c3ccc(Cl)cn3)C2)c(CO)c1 (centres unmarked) [Compound 2-51, (5-chloropyridin-2-yl)(3-(2′-ethyl-3-(hydroxymethyl)biphenyl-4-yl)pyrrolidin-1-yl) methanone] | < 10 | – | ~5.3 (≈ 2.23 µg/mL) | – | – | – | – | – | – | 7.37 | 14.4 | – |
| CCc1cc(C)ccc1-c1ccc(C2CCN(C(=O)c3ccc(Cl)cn3)C2)c(CO)c1 (centres unmarked) [Compound 2-66, (5-chloropyridin-2-yl)(3-(2′-ethyl-3-(hydroxymethyl)-4′-methylbiphenyl-4-yl)pyrrolidin-1-yl)methanone] | 10 to 100 | – | ~1.9 (≈ 0.826 µg/mL) | – | – | – | – | – | – | 16.5 | 24.9 | – |
| CCc1c(C)cccc1-c1ccc(C2CCN(C(=O)c3ccc(Cl)cn3)C2)c(CO)c1 (centres unmarked) [Compound 2-67, (5-chloropyridin-2-yl)(3-(2′-ethyl-3-(hydroxymethyl)-3′-methylbiphenyl-4-yl)pyrrolidin-1-yl)methanone] | < 10 | – | ~3.6 (≈ 1.57 µg/mL) | – | – | – | – | – | – | 0.698 | 8.47 | – |
| CCc1ccccc1-c1ccc(C2CCN(C(=O)c3ccc(OC)cn3)C2)c(CO)c1 (centres unmarked) [Compound 2-73, (3-(2′-ethyl-3-(hydroxymethyl)biphenyl-4-yl)pyrrolidin-1-yl)(5-methoxypyridin-2-yl)methanone] | 10 to 100 | – | > 26.2 | – | – | – | – | – | – | 20.5 | 9.84 | – |
| CC(C)c1ccccc1-c1ccc([C@@H]2CCN(C(=O)c3ccc(F)cn3)C2)c(CO)c1 [Compound 2-77] | < 10 | – | > 15.5 | – | – | – | – | – | – | 2.27 | 9.14 | – |
